Test results as given in publication PMC7691360, “Synthesis of novel cytotoxic tetracyclic acridone derivatives and study of their molecular docking, ADMET, QSAR, bioactivity and protein binding properties” (Scientific Reports, 2020).

How the values were obtained:
HT29 cells = test: MTT cytotoxicity assay against HT29; assay type: cell-based; details: Homo sapiens, 48 h, read-out: Percentage of inhibition against treated concentrations; for activity at 1 µM: HT-29, HT29, 1 µM; for activity at 5 µM: HT-29, HT29, 5 µM; for activity at 10 µM: HT-29, HT29, 10 µM; for activity at 25 µM: HT-29, HT29, 25 µM; for activity at 50 µM: HT-29, HT29, 50 µM
Experimental: (§1) Anticancer activity of 7a–s has been evaluated by MTT [3-(4,5-dimethylthiazol-2-yl)-2,5-diphenyl-tetrazolium bromide] assay and the cell lines HT29 (ATCC: HTB-38), MDA-MB-231 (ATCC: HTB-26), HEK293T (ATCC: CRL-3216) were procured from American type cell culture collection (ATCC), Manassas, USA and other chemicals were procured from Sigma-Aldrich. Then absorbance (used as a measure of cell proliferation) was measured at 570 nm with a kinetic micro-plate reader (BioTek, Winooski, Vermont).
(§2) Having synthesized a series of the title compounds, all of them were screened for their in vitro anticancer profiles against a panel of human colorectal adenocarcinoma (HT29), human breast adenocarcinoma (MDA-MB-231) and mutated Human embryonic kidney 293 (HEK293T) cancer cell lines by using MTT colourmetric assay as per Johan van Meerloo protocol. The three cell lines were cultured in […] medium and supplemented with 10% FBS followed by 100 units/mL penicillin/ streptomycin and were cultured at 37 °C in 5% CO2. Cell proliferation of the growing cells was measured in terms of logarithmic standards. Analytically, all the cultured cells were plated onto 96 well plates at a starting density of 10^5 cells. Then all the cells were treated with title compounds 7a–s for a period of 48 h with different concentrations. After this incubation cell proliferation inhibition was determined by MTT assay and all the experiments were conducted in triplicates and readings were presented as mean ± SD and provided in Tables 1, 2 and 3.

MDA-MB-231 cells = test: MTT cytotoxicity assay against MDA-MB-231; assay type: cell-based; details: Homo sapiens, 48 h, read-out: Percentage of inhibition against treated concentrations; for activity at 1 µM: MDAMB231, 1 µM; for activity at 5 µM: MDAMB231, 5 µM; for activity at 10 µM: MDAMB231, 10 µM; for activity at 25 µM: MDAMB231, 25 µM; for activity at 50 µM: MDAMB231, 50 µM
Experimental: as §1, §2

HEK293T cells = test: MTT cytotoxicity assay against HEK293T; assay type: cell-based; details: Homo sapiens, HEK-293T, 48 h, read-out: Percentage of inhibition against treated concentrations
Experimental: as §1, §2

Structure (SMILES) | activity at 1 µM (HT29 cells) | activity at 5 µM (HT29 cells) | activity at 10 µM (HT29 cells) | activity at 25 µM (HT29 cells) | activity at 50 µM (HT29 cells) | activity at 1 µM (MDA-MB-231 cells) | activity at 5 µM (MDA-MB-231 cells) | activity at 10 µM (MDA-MB-231 cells) | activity at 25 µM (MDA-MB-231 cells) | activity at 50 µM (MDA-MB-231 cells) | activity at 1 µM (HEK293T cells) | activity at 5 µM (HEK293T cells) | activity at 10 µM (HEK293T cells) | activity at 25 µM (HEK293T cells) | activity at 50 µM (HEK293T cells) | melting point
O=c1c2ccccc2n2c3c(cccc13)N(c1nccs1)CC2 [Compound 7j, 3-(Thiazol-2-yl)-2,3-dihydropyrazino[3,2,1-de]acridin-7(1H)-one] | 89.55 ± 0.11% | 64.84 ± 0.45% | 51.5 ± 0.94% | 31.05 ± 0.19% | 17.4 ± 0.87% | 87.9 ± 0.95% | 58.4 ± 0.88% | 48.2 ± 0.88% | 39.53 ± 0.23% | 23.3 ± 0.98% | 96.71 ± 0.63% | 94.47 ± 0.83% | 91.28 ± 0.48% | 84.17 ± 0.37% | 49.6 ± 0.38% | 239 to 241 °C
O=c1c2ccccc2n2c3c(cccc13)N(c1cccnc1)CC2 [Compound 7s, 3-(Pyridin-3-yl)-2,3-dihydropyrazino[3,2,1-de]acridin-7(1H)-one] | 84.78 ± 0.12% | 60.38 ± 0.24% | 48.4 ± 0.57% | 27.5 ± 0.35% | 15.2 ± 0.61% | 88.63 ± 0.67% | 59.87 ± 0.26% | 49.22 ± 0.24% | 43.07 ± 0.28% | 25.4 ± 0.46% | 93.26 ± 0.88% | 91.78 ± 0.53% | 88.09 ± 0.54% | 80.57 ± 0.26% | 47.8 ± 0.79% | –
O=C(c1ccccc1C(F)(F)F)N1CCn2c3ccccc3c(=O)c3cccc1c32 [Compound 7m, 3-(2-(Trifluoromethyl)benzoyl)-2,3-dihydro-1H,7H-pyrazino[3,2,1-de]acridin-7-one] | 92.71 ± 0.01% | 76.71 ± 0.17% | 68.5 ± 0.72% | 57.33 ± 0.32% | 23.8 ± 0.33% | 92.11 ± 0.88% | 71.15 ± 0.19% | 65 ± 0.46% | 56.9 ± 0.59% | 33.5 ± 0.57% | 97.18 ± 0.28% | 94.73 ± 0.82% | 92.36 ± 0.46% | 86.88 ± 0.3% | 51.2 ± 0.07% | –
O=C(c1cccc(F)c1)N1CCn2c3ccccc3c(=O)c3cccc1c32 [Compound 7q, 3-(3-Fluorobenzoyl)-2,3-dihydro-1H,7H-pyrazino[3,2,1-de]acridin-7-one] | 94.96 ± 0.53% | 78.87 ± 0.43% | 70.57 ± 0.53% | 58.23 ± 0.29% | 25.3 ± 0.44% | 93.46 ± 0.54% | 72.41 ± 0.45% | 66.2 ± 0.69% | 57.89 ± 0.12% | 34.1 ± 0.37% | 98.51 ± 0.12% | 96.21 ± 0.72% | 94.69 ± 0.34% | 91.34 ± 0.41% | 53.8 ± 0.58% | –
COc1cccc2c1C(=O)c1c(O)c3c(c(O)c1C2=O)C[C@@](O)(C(=O)CO)C[C@@H]3O[C@H]1C[C@H](N)[C@H](O)[C@H](C)O1 [Doxorubicin, reference compound] | 97.09 ± 0.79% | 90.76 ± 0.83% | 82.92 ± 0.54% | 72.6 ± 0.83% | 42.8 ± 0.86% | 93.65 ± 0.42% | 87.54 ± 0.67% | 79.98 ± 0.67% | 69.98 ± 0.47% | 41.2 ± 0.79% | 96.1 ± 0.83% | 95.66 ± 0.42% | 92.44 ± 0.56% | 85.27 ± 0.78% | 50.25 ± 0.14% | –
O=C(c1cccc(C(F)(F)F)c1)N1CCn2c3ccccc3c(=O)c3cccc1c32 [Compound 7n, 3-(3-(Trifluoromethyl)benzoyl)-2,3-dihydro-1H,7H-pyrazino[3,2,1-de]acridin-7-one] | 95.32 ± 0.73% | 79.12 ± 0.33% | 72.72 ± 0.33% | 59.26 ± 0.11% | 26.9 ± 0.84% | 90.57 ± 0.59% | 69.83 ± 0.31% | 61.97 ± 0.44% | 54.23 ± 0.32% | 31.96 ± 0.16% | 96.84 ± 0.75% | 94.67 ± 0.59% | 92.02 ± 0.39% | 84.32 ± 0.28% | 49.69 ± 0.21% | –
O=C(c1cccc(C(F)(F)F)n1)N1CCn2c3ccccc3c(=O)c3cccc1c32 [Compound 7i, 3-(6-(Trifluoromethyl)picolinoyl)-2,3-dihydropyrazino[3,2,1-de]acridin-7(1H)-one] | 83.56 ± 0.57% | 59.1 ± 0.75% | 46.5 ± 0.52% | 25.8 ± 0.28% | 12.2 ± 0.27% | 84.78 ± 0.64% | 55.71 ± 0.32% | 45.6 ± 0.94% | 28.6 ± 0.3% | 16.8 ± 0.37% | 98.39 ± 0.19% | 95.7 ± 0.97% | 93.38 ± 0.64% | 88.56 ± 0.24% | 52.19 ± 0.26% | –
O=C(c1ccsc1)N1CCn2c3ccccc3c(=O)c3cccc1c32 [Compound 7h, 3-(Thiophene-3-carbonyl)-2,3-dihydropyrazino[3,2,1-de]acridin-7(1H)-one] | 87.92 ± 0.24% | 62.4 ± 0.68% | 50.2 ± 0.65% | 29.5 ± 0.51% | 17.8 ± 0.65% | 82.62 ± 0.41% | 53.8 ± 0.75% | 42.4 ± 0.49% | 21.4 ± 0.29% | 12.6 ± 0.72% | 92.81 ± 0.18% | 89.61 ± 0.31% | 86.2 ± 0.66% | 78.45 ± 0.18% | 46.23 ± 0.43% | –
O=C(CC1CC1)N1CCn2c3ccccc3c(=O)c3cccc1c32 [Compound 7d, 3-(2-Cyclopropylacetyl)-2,3-dihydropyrazino[3,2,1-de]acridin-7(1H)-one] | 88.71 ± 0.78% | 63.1 ± 0.71% | 50.91 ± 0.38% | 29.68 ± 0.23% | 18 ± 0.39% | 85.23 ± 0.73% | 55.73 ± 0.21% | 45.6 ± 0.98% | 28.6 ± 0.43% | 16.83 ± 0.16% | 99.76 ± 0.56% | 98.09 ± 0.42% | 97.1 ± 0.88% | 96.35 ± 0.19% | 56.8 ± 0.69% | –
